This is an account of results in ChEMBL document CHEMBL5385860, “Antiproliferative, antiangiogenic and apoptotic effect of new hybrids of quinazoline-4(3H)-ones and sulfachloropyridazine” (Eur J Med Chem, 2023).

One data set deals with SNB-75. The data set can be described thus: cells. The conditions noted are these: Homo sapiens, SNB-75, 24 h.
Data set [1] relates to UO-31. The data set can be described thus: Induction of cell cycle arrest in human UO-31 cells assessed as accumulation of cells in G2/M phase at 3.61 uM measured after 24 hrs by PI staining based flow cytometry analysis (reference value: 14.32%). It counts as functional. For orientation: In flow cytometry, cells or beads pass a laser one at a time.
The subject of data set [2] is UO-31. The data set can be described thus: Induction of apoptosis in human UO-31 cells assessed as increase in caspase-3 level by measuring optical density by Western blot densitometry analysis (reference value: 0.095). It counts as functional. In general terms: In western blotting, separated proteins are transferred to a membrane and probed.
Data set [3] has as its system UO-31. The data set can be described thus: Induction of cell cycle arrest in human UO-31 cells assessed as accumulation of cells in S phase at 3.61 uM measured after 24 hrs by PI staining based flow cytometry analysis (reference value: 36.42%). The format is functional.
Data set [4] concerns UO-31. The experiment in a line: Induction of cell cycle arrest in human UO-31 cells assessed as cell aggregates at 3.61 uM measured after 24 hrs by PI staining based flow cytometry analysis (reference value: 1.82%). It counts as functional.
Data set [5] deals with UO-31. The data set can be described thus: Induction of apoptosis in human UO-31 cells assessed as early apoptotic cells at IC50 by Annexin V-FITC/PI staining based flow cytometry analysis (reference value: 0.61%). It counts as functional.
Data set [6] concerns UO-31. The data set can be described thus: Induction of cell cycle arrest in human UO-31 cells assessed as accumulation of cells in G0-G1 phase at 3.61 uM measured after 24 hrs by PI staining based flow cytometry analysis (reference value: 49.26%). It counts as functional.
Data set [7] has as its system M14. The experiment in a line: cells. The conditions noted are these: Homo sapiens, M14, 24 h.
Data set [8] deals with UO-31. The experiment in a line: Induction of apoptosis in human UO-31 cells assessed as late apoptotic cells at IC50 by Annexin V-FITC/PI staining based flow cytometry analysis (reference value: […]). The format is functional.
In data set [9] the test system is UO-31. The data set can be described thus: Induction of apoptosis in human UO-31 cells assessed as fold decrease in Bcl-2 protein level by ELISA relative to control. It counts as functional. Background: ELISA stands for enzyme-linked immunosorbent assay.
Data set [10] relates to UO-31. The experiment in a line: Induction of apoptosis in human UO-31 cells assessed as Bcl-2 protein level by ELISA (reference value: 12.19 +/- 0.64 ng/ml). It counts as functional.
A further data set deals with HCT-116. The experiment in a line: cells. The conditions noted are these: Homo sapiens, HCT-116, 24 h.
Data set [11] is described as follows: Cytotoxicity against human RPTEC cells assessed as inhibition of cell growth incubated for 24 hrs by MTT assay. It counts as toxicity, cell-based.
For data set [12], the system named is UO-31. The experiment in a line: Induction of cell cycle arrest in human UO-31 cells assessed as cell debris at 3.61 uM measured after 24 hrs by PI staining based flow cytometry analysis (reference value: 2.19%). The format is functional.
The test system of data set [13] is UO-31. The experiment in a line: cells. The note with it: Homo sapiens, UO-31, 24 h.
The test system of data set [14] is UO-31. The experiment in a line: Induction of apoptosis in human UO-31 cells assessed as Bax protein level by ELISA (reference value: 70.11 +/- 7.45 pg/ml). The format is functional.
In data set [15] the test system is UO-31. The format is functional, Homo sapiens. The note with it: dose 3.61 µM; time 24 hrs.
The subject of data set [16] is UO-31. The data set can be described thus: Induction of apoptosis in human UO-31 cells assessed as fold increase in Bax protein level by ELISA relative to control. The format is functional.
Data set [17] deals with M14. The experiment in a line: cells. The note with it: Homo sapiens, M14, light or radiation study.
For data set [18], the system named is UO-31. The experiment in a line: Induction of apoptosis in human UO-31 cells assessed as necrotic cells at IC50 by Annexin V-FITC/PI staining based flow cytometry analysis (reference value: 1.19%). It counts as functional.
Data set [19] relates to UO-31. The experiment in a line: cells. The conditions noted are these: Homo sapiens, UO-31, light or radiation study.

For orientation: IC50 means the concentration that gives 50% inhibition. Take `COc1cccc2c1C(=O)c1c(O)c3c(c(O)c1C2=O)C[C@@](O)(C(=O)CO)C[C@@H]3O[C@H]1C[C@H](N)[C@H](O)[C@H](C)O1` [DOXORUBICIN]: the IC50 in the data set with SNB-75 came to 5.82 µM; with M14 [7], 5.11 µM; in the data set on HCT-116 it was 0.49 µM; in the data set with UO-31 [13] it was 3.61 µM; in the data set on M14 [17], 2.13 µM; with UO-31 [19], 3.01 µM. In addition, the Activity amounted to 7.91% in the data set on UO-31 [1]; 48.62% with UO-31 [3]; 2.13% with UO-31 [4]; 14.13% in the data set with UO-31 [5]; 43.47% in the data set on UO-31 [6]; 26.5% in the data set on UO-31 [8]. Besides, the Activity was 4.396 ng/mL in the data set with UO-31 [10]; 1.66% in the data set on UO-31 [12]; 392.1 pg/mL with UO-31 [14]; 51.66% in the data set on UO-31 [15]; 11.03% in the data set on UO-31 [18]. For the same compound, in the data set on UO-31 [2], the OD was 0.844. The “fold change (FC)” value in the data set on UO-31 [9] was determined as 0.36; in the data set on UO-31 [16], 5.59. For the same compound, the IC50 at 24 h in data set [11] is 12.5 µM.
